The text below walks through data of US9850219B1, “Phenothiazine derivatives and methods of use thereof” (Acenda Pharma, Inc., priority 2016, dated 2017).

One test has as its system lung cancer cells. Briefly: Cytotoxicity SRB assay, summary of Table 2. The following applies: summary in words of Table 2. It counts as cell-based, Human. The text has this: (§1) Human non-small cell lung cancer (NSCLC) cell lines (e.g., A549, H441GL and H1299), colon cancer cell lines (e.g., HCT116 and DLD1), breast cancer cell lines (e.g., MCF7 and MDA-MB-231), and pancreatic cancer cell lines (e.g., PANC-1 and SUIT-2) were used in cytotoxicity studies. These NSCLC cell lines have intrinsic resistance to epidermal growth factor receptor (EGFR) inhibitors, e.g., gefitinib. A549 and H441GL are EGFR-wild type adenocarcinoma cell lines. H1299 is an EGFR-wild type large cell carcinoma cell line. HCT116 and DLD1 are metastatic colon cell lines. MCF7 is a hormone-responsive breast cancer cell line. MDA-MB-231 is a triple-negative breast cancer cell line. PANC-1 is a metastatic adenocarcinoma cell line. SUIT-2 is a pancreatic ductal adenocarcinoma cell line.
(§2) Cells were plated in 96-well plates at a density of 2000 cells per well in triplicate. The cells in each well were treated on the third day (to ensure proper plating efficiency and vitality) with different concentrations (0-50 μM) of each test compound for 48 h.
(§3) Cell viability was assessed using the sulforhodamine B (SRB) assay. The medium was discarded, and the adherent cells were fixed by 100 μL of cold 10% trichloroacetic acid (w/v) in each well for 1 h at 4° C. After fixation, cells were stained with 100 μL/well of 0.4% (w/v, in 1% acetic acid) SRB solution for 30 min at room temperature, and then washed 5 times with 1% acetic acid. After air-drying, 100 μL of 10 mM Tris base was added to each well and the absorbance was read at 530 nm. Cytotoxicity is expressed as the percent of cells in drug treated wells relative to number of cells in the solvent only control (set to 100%). Each experiment was performed independently in triplicate and cytotoxicity IC50 value of each test compound was calculated from cytotoxicity data obtained at various concentrations.
NA indicates no activity.

A further test has as its system A549. Briefly: Cytotoxicity, sulforhodamine B (SRB) assay, A549. The note with it: A549, 48 h, NA indicates no activity. It counts as cell-based, Human.
From the text: as §1, with “These NSCLC cell lines have intrinsic resistance to epidermal growth factor receptor (EGFR) inhibitors, e.g., gefitinib.” left out
(§4) All cell lines were grown and maintained in RPMI medium supplemented with 10% fetal bovine serum (FBS, Invitrogen), 2 mM L-glutamine, 100 U/mL penicillin, and 100 μg/mL streptomycin. For cell the culture experiment, stock solution (10 mM) of each test compound was dissolved in dimethyl sulfoxide (DMSO; Sigma).
as §2, §3

The next test concerns H441GL. As to the kind of experiment: Cytotoxicity, sulforhodamine B (SRB) assay, H441GL. It is filed as cell-based, Human. The following applies: 48 h, NA indicates no activity.
From the text: as §1, with “These NSCLC cell lines have intrinsic resistance to epidermal growth factor receptor (EGFR) inhibitors, e.g., gefitinib.” left out
as §4, §2, §3

Another test deals with MCF7. As to the kind of experiment: Cytotoxicity, sulforhodamine B (SRB) assay, MCF7. It is filed as cell-based, human. The following applies: MCF7, Breast, 48 h.
From the text: as §1, §4, §2, §3

Another test concerns SUIT-2. As to the kind of experiment: Cytotoxicity, sulforhodamine B (SRB) assay, SUIT-2. It is filed as cell-based, human. The note with it: SUIT-2, Pancreas, 48 h.
From the text: as §1, §4, §2, §3

The test system of the next test is PANC-1. Briefly: Cytotoxicity, sulforhodamine B (SRB) assay, PANC-1. The following applies: PANC-1, Pancreas, 48 h, NA = no activity. It is filed as cell-based, human.
From the text: as §1, §4, §2, §3

In test [1] the test system is H441GL cells. Briefly: Study 2: tumor size in mouse lung cancer model. It is filed as in vivo, NOD/SCID mice. The following applies: Study 2, 0.0127 mmol/kg daily, i.p.; for Tumor Size [Fold Change from Week 3 (Mean ± SD, n = 4)] Week 3: Week 3 (baseline, start of treatment). As to the method: (§5) H441GL cells (1×10^6 cells in 100 μL phosphate-buffered saline/injection) were subcutaneously injected into the right flank of NOD/SCID mice (female, 4-6 weeks old). Mice were allowed 2 weeks for tumor growth. On the first day of Week 3 post injection, tumor-bearing mice were randomly divided into control group (DMSO vehicle, intraperitoneal (i.p.) injection) and test compound treatment groups (5 mg/kg/day, 5 days/week, i.p. injection). Over the period of 10 weeks, tumorigenesis in both groups was measured using a caliper on a weekly basis. The change in tumor size was expressed as in fold change from Week 3. In this study body weight of each mouse was also recorded at the end of each study week.
In this study, the daily dose was 0.0127 mmol/kg instead of 5 mg/kg.

The subject of the next test is MDA-MB-231. Briefly: Cytotoxicity, sulforhodamine B (SRB) assay, MDA-MB-231. It counts as cell-based, human. The note with it: MDA-MB-231, Breast, 48 h.
From the text: as §1, §4, §2, §3

Test [2] concerns H441GL cells. Briefly: Study 1: tumor size in mouse lung cancer model. It is filed as in vivo, NOD/SCID mice. The following applies: Study 1, 5 mg/kg/day, 5 days/week, i.p.; for Tumor Size [Fold Change from Week 3 (Mean ± SD, n = 4)] Week 3: Week 3 (baseline, start of treatment). As to the method: as §5

With `COCCOCCOCCOCCOCCOCCOCC(=O)N1CCN(CCCN2c3ccccc3Sc3ccc(Cl)cc32)CC1` [Compound 6-2a, NDP-CO—[CH2CH2O]6—CH3], the “inhibition of cell proliferation of lung cancer cells” value (“inhibition” for short) in the test with lung cancer cells was “inhibit cell proliferation”. For the same compound, the IC50 in the test on A549 (Homo sapiens) is 31.5 µM; in the test with H441GL (Homo sapiens) it was 25.2 µM.

On to `COCCOCCOCCOCC(=O)N1CCN(CCCN2c3ccccc3Sc3ccc(Cl)cc32)CC1` [Compound 6-1a, NDP-CO—[CH2CH2O]3—CH3], for which, in the test on lung cancer cells, the “inhibition” value is listed as “inhibit cell proliferation”. Also, the values for the IC50 in the test on A549 (Homo sapiens) and in the test with H441GL (Homo sapiens) were 25.8 µM and 21.5 µM, respectively.

In the case of `COCCOCCOCCOCCOCCOCCOCCOCCOCCOCCOCCOCCOCCOCCOCCOCCN1CCN(CCCN2c3ccccc3Sc3ccc(Cl)cc32)CC1` [Compound 4-4a], in the test with lung cancer cells, the “inhibition” value is “inhibit cell proliferation”. For the same compound, the IC50 is 20.2 µM with A549 and 12.9 µM in the test with H441GL.

With `COCCOCCOCCOCCOCCOCCOCCOCCOCCOCCOCCOCCOCCOCCOCCOCCOC(=O)N1CCN(CCCN2c3ccccc3Sc3ccc(Cl)cc32)CC1` [Compound 5-4a, NDP-CO—O—[CH2CH2O]16—CH3], the “inhibition” value in the test with lung cancer cells was “inhibit cell proliferation”. The IC50 in the test on A549 was found to be 6.2 µM; in the test on H441GL, 3 µM.

As to `COCCOCCOCCOCCOCCOCCOCCOCCOCCOCCOCCOCCOCCOCCOCCOCCOC(=O)N1CCN(CCCN2c3ccccc3Sc3ccc(C(F)(F)F)cc32)CC1` [Compound 5-4b, NDT-CO—O—[CH2CH2O]16—CH3], the “inhibition” value with lung cancer cells is on record as “inhibit cell proliferation”. The IC50 in the test with A549 turned out to be 13.8 µM; with H441GL, 17.5 µM.

With `COCCOCCOCCOCCOCCOCCOCCOCCOCCOCCOCCOCCOCC(=O)N1CCN(CCCN2c3ccccc3Sc3ccc(C(F)(F)F)cc32)CC1` [Compound 6-3b, NDT-CO—[CH2CH2O]12—CH3], the IC50 with A549 amounted to 20.6 µM.

In the case of `COCCOCCOCCOCCOCCOCCN1CCN(CCCN2c3ccccc3Sc3ccc(Cl)cc32)CC1` [Compound 4-2a], the “inhibition” value with lung cancer cells is reported as “inhibit cell proliferation”. For the same compound, the IC50 in the test on MCF7 was determined as 13.2 µM; in the test on SUIT-2, 13.5 µM; in the test with PANC-1, 13.1 µM; in the test with A549, 10.9 µM; in the test on MDA-MB-231, 18.1 µM; in the test with H441GL, 9.1 µM. The “Tumor Size [Fold Change from Week 3 (Mean ± SD, n = 4)] Week 3” value in the test on H441GL cells [1] came to 1 ± 0 Fold Change. The “Tumor Size [Fold Change from Week 3 (Mean ± SD, n = 4)] Week 9” value in the test with H441GL cells [1] is 10.3 ± 1.6 Fold Change. The “Tumor Size [Fold Change from Week 3 (Mean ± SD, n = 4)] Week 13” value in the test on H441GL cells [1] came to 25.6 ± 5.1 Fold Change.

For the compound `COCCOCCOCCOC(=O)N1CCN(CCCN2c3ccccc3Sc3ccc(Cl)cc32)CC1` [Compound 5-1a, NDP-CO—O—[CH2CH2O]3—CH3], the “inhibition” value with lung cancer cells is “inhibit cell proliferation”. For the same compound, the IC50 with MCF7 is 15.5 µM; with SUIT-2, 18.6 µM; with PANC-1, 6.7 µM; in the test with A549, 15.7 µM; in the test on MDA-MB-231, 22.2 µM; in the test on H441GL it was 16 µM. In the test with H441GL cells [2], the “Tumor Size [Fold Change from Week 3 (Mean ± SD, n = 4)] Week 3” value was 1 ± 0 Fold Change. Moreover, in the test with H441GL cells [2], the “Tumor Size [Fold Change from Week 3 (Mean ± SD, n = 4)] Week 9” value was 24.9 ± 4.3 Fold Change. Besides, in the test with H441GL cells [2], the “Tumor Size [Fold Change from Week 3 (Mean ± SD, n = 4)] Week 13” value worked out at 55.4 ± 10.8 Fold Change.

Take `COCCOCCOCCOCC(=O)N1CCN(CCCN2c3ccccc3Sc3ccc(C(F)(F)F)cc32)CC1` [Compound 6-1b, NDT-CO—[CH2CH2O]3—CH3]: in the test with lung cancer cells, the “inhibition” value was “inhibit cell proliferation”. Besides, the IC50 with A549 (Homo sapiens) was found to be 17 µM; in the test on H441GL (Homo sapiens), 16.2 µM.

`COCCOCCOCCOCCOCCOCCOCCOCCOCCOCCOCCOCCOCCOCCOCCOCCOCC(=O)N1CCN(CCCN2c3ccccc3Sc3ccc(C(F)(F)F)cc32)CC1` [Compound 6-4b, NDT-CO—[CH2CH2O]16—CH3]: the results for the IC50 with A549 (Homo sapiens) and in the test on H441GL (Homo sapiens) were 44.2 µM and 30 µM, respectively.

Compound `COCCOCCOCCOCCOCCOCCOCCOCCOCCOCCOCCOCCOCCOCCOCCOCCN1CCN(CCCN2c3ccccc3Sc3ccc(C(F)(F)F)cc32)CC1` [Compound 4-4b] registered an IC50 in the test on H441GL of 36.4 µM.

As to `COCCOCCOCCOCCOCCOCCOCCOCCOCCOCCOCCOCCOCCOCCOCCOCCOCC(=O)N1CCN(CCCN2c3ccccc3Sc3ccc(Cl)cc32)CC1` [Compound 6-4a, NDP-CO—[CH2CH2O]16—CH3], in the test on H441GL (Homo sapiens), the IC50 turned out to be 39.1 µM.

`COCCOCCOCCN1CCN(CCCN2c3ccccc3Sc3ccc(Cl)cc32)CC1` [Compound 4-1a]: the “inhibition” value in the test on lung cancer cells is given as “inhibit cell proliferation”. For the same compound, the IC50 worked out at 12.8 µM with MCF7; 13.2 µM in the test with SUIT-2; 12.3 µM in the test on PANC-1; 32.5 µM with A549; 11.9 µM in the test with MDA-MB-231; 13.2 µM in the test on H441GL.

As to `COCCOCCOCCOCCOCCOCCOC(=O)N1CCN(CCCN2c3ccccc3Sc3ccc(Cl)cc32)CC1` [Compound 5-2a, NDP-CO—O—[CH2CH2]6—CH3], in the test with lung cancer cells, the “inhibition” value is on record as “inhibit cell proliferation”. Also, the IC50 with MCF7 amounted to 15.3 µM; in the test with SUIT-2, 16.2 µM; with PANC-1, 6.9 µM; in the test with A549, 25.2 µM; in the test on MDA-MB-231, 21.6 µM; in the test with H441GL, 18.7 µM. The “Tumor Size [Fold Change from Week 3 (Mean ± SD, n = 4)] Week 3” value in the test on H441GL cells [2] was determined as 1 ± 0 Fold Change. The “Tumor Size [Fold Change from Week 3 (Mean ± SD, n = 4)] Week 9” value in the test with H441GL cells [2] is given as 28.0 ± 6.5 Fold Change. Further, in the test with H441GL cells [2], the “Tumor Size [Fold Change from Week 3 (Mean ± SD, n = 4)] Week 13” value is reported as 66.2 ± 18.4 Fold Change.

Regarding `COCCOCCOCCOCCOCCOCCOCC(=O)N1CCN(CCCN2c3ccccc3Sc3ccc(C(F)(F)F)cc32)CC1` [Compound 6-2b, NDT-CO—[CH2CH2O]6—CH3], the “inhibition” value in the test on lung cancer cells was “inhibit cell proliferation”. Also, the IC50 in the test with A549 and in the test on H441GL was 15.5 µM each time.

Consider `COCCOCCOCCOCCOCCOCCOCCOCCOCCOCCOCCOCCN1CCN(CCCN2c3ccccc3Sc3ccc(Cl)cc32)CC1` [Compound 4-3a], for which the “inhibition” value in the test on lung cancer cells is “inhibit cell proliferation”. In addition, the IC50 with MCF7 was 10 µM; in the test on SUIT-2 it was 25.4 µM; with PANC-1 it was 7.1 µM; with A549 it was 11.9 µM; in the test on MDA-MB-231 it was 15.6 µM; with H441GL, 12.7 µM. Further, the “Tumor Size [Fold Change from Week 3 (Mean ± SD, n = 4)] Week 3” value in the test on H441GL cells [1] came to 1 ± 0 Fold Change. In the test with H441GL cells [1], the “Tumor Size [Fold Change from Week 3 (Mean ± SD, n = 4)] Week 9” value amounted to 12.5 ± 1.5 Fold Change. Moreover, the “Tumor Size [Fold Change from Week 3 (Mean ± SD, n = 4)] Week 13” value in the test on H441GL cells [1] amounted to 32.6 ± 4.3 Fold Change.

Take `COCCOCCOCCOCCOCCOCCOCCOCCOCCOCCOCCOCCOCC(=O)N1CCN(CCCN2c3ccccc3Sc3ccc(Cl)cc32)CC1` [Compound 6-3a, NDP-CO—[CH2CH2O]12—CH3]: the “inhibition” value with lung cancer cells is on record as “inhibit cell proliferation”. The IC50 with A549 (Homo sapiens) worked out at 22.3 µM; in the test on H441GL (Homo sapiens) it was 24.3 µM.
